{
  "source": "ChEMBL document CHEMBL1149083",
  "about": "“CoMFA and CoMSIA 3D-QSAR studies on S(6)-(4-nitrobenzyl)mercaptopurine riboside (NBMPR) analogs as inhibitors of human equilibrative nucleoside transporter 1 (hENT1)” (Bioorg Med Chem Lett, 2009)",
  "data": [
    {"biological_target": "T1, Equilibrative nucleoside transporter 1 (Homo sapiens, UniProt Q99808)", "T1 sequence (Q99808 whole entry)": "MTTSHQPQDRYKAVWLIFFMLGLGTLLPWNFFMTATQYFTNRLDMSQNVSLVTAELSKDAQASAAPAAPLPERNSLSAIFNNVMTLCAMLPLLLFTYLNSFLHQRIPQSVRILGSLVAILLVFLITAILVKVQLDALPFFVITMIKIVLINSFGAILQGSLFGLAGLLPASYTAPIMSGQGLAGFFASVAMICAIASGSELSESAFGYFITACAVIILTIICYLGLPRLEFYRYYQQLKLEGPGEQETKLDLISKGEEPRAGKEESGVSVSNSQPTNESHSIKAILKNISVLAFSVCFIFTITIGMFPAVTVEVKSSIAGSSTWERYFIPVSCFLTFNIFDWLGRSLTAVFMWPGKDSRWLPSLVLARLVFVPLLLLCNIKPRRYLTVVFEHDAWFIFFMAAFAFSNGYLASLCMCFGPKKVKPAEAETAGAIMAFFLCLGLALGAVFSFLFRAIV", "assay": "Inhibition of human ENT1", "units": {"Ki": "nM"}, "values": [
      {"smiles": "O=[N+]([O-])c1cccc(CSc2ncnc3c2ncn3[C@@H]2O[C@H](CO)[C@@H](O)[C@H]2O)c1", "Ki": 1.78},
      {"smiles": "N#Cc1ccccc1CSc1ncnc2c1ncn2[C@@H]1O[C@H](CO)[C@@H](O)[C@H]1O", "Ki": 38.9},
      {"smiles": "OC[C@H]1O[C@@H](n2cnc3c(SCc4ccc(Cl)cc4Cl)ncnc32)[C@H](O)[C@@H]1O", "Ki": 4.37},
      {"smiles": "OC[C@H]1O[C@@H](n2cnc3c(SCc4cccc(F)c4)ncnc32)[C@H](O)[C@@H]1O", "Ki": 12.9},
      {"smiles": "OC[C@H]1O[C@@H](n2cnc3c(SCc4c(F)cccc4Cl)ncnc32)[C@H](O)[C@@H]1O", "Ki": 87.1},
      {"smiles": "COC(=O)c1ccc(CSc2ncnc3c2ncn3[C@@H]2O[C@H](CO)[C@@H](O)[C@H]2O)cc1", "Ki": 46.8},
      {"smiles": "OC[C@H]1O[C@@H](n2cnc3c(SCc4cccc(C(F)(F)F)c4)ncnc32)[C@H](O)[C@@H]1O", "Ki": 19.1},
      {"smiles": "CC(C)(C)c1ccc(CSc2ncnc3c2ncn3[C@@H]2O[C@H](CO)[C@@H](O)[C@H]2O)cc1", "Ki": 10000},
      {"smiles": "OC[C@H]1O[C@@H](n2cnc3c(SCc4ccccc4)ncnc32)[C@H](O)[C@@H]1O", "note": "[6-BENZYLTHIOINOSINE]", "Ki": 20},
      {"smiles": "OC[C@H]1O[C@@H](n2cnc3c(SCc4ccccc4F)ncnc32)[C@H](O)[C@@H]1O", "Ki": 24},
      {"smiles": "Cc1cccc(CSc2ncnc3c2ncn3[C@@H]2O[C@H](CO)[C@@H](O)[C@H]2O)c1", "Ki": 16.2},
      {"smiles": "OC[C@H]1O[C@@H](n2cnc3c(SCc4cccc(Br)c4)ncnc32)[C@H](O)[C@@H]1O", "Ki": 20.9},
      {"smiles": "OC[C@H]1O[C@@H](n2cnc3c(SCc4ccc(OC(F)(F)F)cc4)ncnc32)[C@H](O)[C@@H]1O", "Ki": 7.08},
      {"smiles": "OC[C@H]1O[C@@H](n2cnc3c(SCc4ccc(Cl)c(Cl)c4)ncnc32)[C@H](O)[C@@H]1O", "Ki": 12.6},
      {"smiles": "OC[C@H]1O[C@@H](n2cnc3c(SCc4ccccc4Br)ncnc32)[C@H](O)[C@@H]1O", "Ki": 151},
      {"smiles": "OC[C@H]1O[C@@H](n2cnc3c(SCc4cccc(Cl)c4)ncnc32)[C@H](O)[C@@H]1O", "Ki": 18.2},
      {"smiles": "OC[C@H]1O[C@@H](n2cnc3c(SCc4ccc(I)cc4)ncnc32)[C@H](O)[C@@H]1O", "Ki": 3.8},
      {"smiles": "OC[C@H]1O[C@@H](n2cnc3c(SCc4ccc(Cl)cc4)ncnc32)[C@H](O)[C@@H]1O", "Ki": 14.8},
      {"smiles": "N#Cc1ccc(CSc2ncnc3c2ncn3[C@@H]2O[C@H](CO)[C@@H](O)[C@H]2O)cc1", "Ki": 4.57},
      {"smiles": "N#Cc1cccc(CSc2ncnc3c2ncn3[C@@H]2O[C@H](CO)[C@@H](O)[C@H]2O)c1", "Ki": 36.3},
      {"smiles": "Cc1ccccc1CSc1ncnc2c1ncn2[C@@H]1O[C@H](CO)[C@@H](O)[C@H]1O", "Ki": 67.6},
      {"smiles": "OC[C@H]1O[C@@H](n2cnc3c(SCc4ccc(Br)cc4)ncnc32)[C@H](O)[C@@H]1O", "Ki": 11.5},
      {"smiles": "Cc1cc(C)c(CSc2ncnc3c2ncn3[C@@H]2O[C@H](CO)[C@@H](O)[C@H]2O)c(C)c1", "Ki": 1910},
      {"smiles": "OC[C@H]1O[C@@H](n2cnc3c(SCc4ccccc4Cl)ncnc32)[C@H](O)[C@@H]1O", "Ki": 117},
      {"smiles": "O=[N+]([O-])c1ccccc1CSc1ncnc2c1ncn2[C@@H]1O[C@H](CO)[C@@H](O)[C@H]1O", "Ki": 115},
      {"smiles": "Cc1ccc(CSc2ncnc3c2ncn3[C@@H]2O[C@H](CO)[C@@H](O)[C@H]2O)cc1", "Ki": 15.1},
      {"smiles": "COc1ccc(CSc2ncnc3c2ncn3[C@@H]2O[C@H](CO)[C@@H](O)[C@H]2O)cc1", "Ki": 34.7},
      {"smiles": "OC[C@H]1O[C@@H](n2cnc3c(SCc4ccccc4I)ncnc32)[C@H](O)[C@@H]1O", "Ki": 19.5}
    ]}
  ]
}
